Key:
[1] = system: U937 cells; assay: Annexin V-PE/7-AAD apoptosis assay; type: cell-based; conditions: Homo sapiens
Source text: To detect apoptosis we used an Annexin V and 7-amino-actinomycin D (7-AAD) based assay. Annexin V is a protein that has high binding affinity to phosphatidylserine, which is translocated from the inner to the outer leaflet of the membrane during early apoptosis. 7-AAD is a DNA dye that stains cells only when the cell membranes are permeable. Thus, double positive events are considered to represent end stage apoptosis and dead cells. […] The results obtained using this assay correlated well with the results of other assays:
Six-well plates were set up with dose responses for each of the 11 hit compounds (artemisinin, artemether, artesunate, dihydroartemisinin, parthenolide, patulin, clioquinol, cryptotanshinone, pyrithione zinc, harmalol, quinalizarin). Each well contained 2.5×10^6 U937 cells in 5 mL cRPMI. To each well, 15 μL of compound in DMSO (or vehicle control) was fTadded, giving final concentrations of 0, 300 nM, and 1, 3, 10, and 30 […] were incubated overnight, at 37° C., 5% CO2/95% air. The compound effects on apoptosis were assessed with an Annexin V-PE/7-amino-actinomycin D (7-AAD) kit (BD Pharmingen™ cat. no. 559763), according to manufacturer protocol, and data were collected with a BD Accuri™ C6 flow cytometer. A gate was set for live cells, and 10,000 gated events were collected per sample. FL-2 versus FL-3 channel dot plots were divided into quadrants and were used to determine percentages of gated cells that were Annexin V^−/7-AAD^− (live, healthy cells), Annexin V^+/7-AAD^− (early apoptosis), or Annexin V^+/7-AAD^+ (late, full apoptosis).
[…] The samples were plotted as Annexin V vs 7-AAD and quadrant-gated. Annexin V^+, 7-AAD^− events are indicative of early apoptosis, in which phosphatidyl serine has flipped to the outer leaflet of the cell membrane. Annexin V^+, 7-AAD^+ (double positive) events indicate cell and nuclear membrane permeabilization, marking late apoptotic events or complete cell death.

[2] = system: U937 cells; assay: CellTrace CFSE cell proliferation assay; conditions: 3 μM, 48 hr
[3] = system: U937 cells; assay: F-cAMP (Alexa 488-cAMP) efflux assay / high throughput flow cytometry screen; type: cell-based, human; conditions: for Hit status in preliminary screen for cAMP efflux inhibitors: Prestwick/SPECTRUM library screen, U937 cells
Protocol: U937 cell were loaded with the analog by a method relying on osmotic lysis of pinocytic vesicles (15). After incubation, cell fluorescence decreased to a level that was close to cell autofluorescence.
Briefly, cells were concentrated and washed, with resuspension NF-RPMI (cRPMI without FBS). Cells were then resuspended in an NF-RPMI hypertonic solution containing poly(ethylene glycol) 1,000 (PEG), sucrose, and Alexa Fluor® 488 8-(6-aminohexyl) aminoadenosine 3′,5′-cyclicmonophosphate, bis(triethylammonium) salt, hereafter referred to as F-cAMP, to give a final concentration of 4.76 mM F-cAMP. Cells were incubated for 10 min, room temperature, then centrifuged and resuspended in hypotonic solution (60% cRPMI, 40% sterile water) for 2 min at room temperature to complete the F-cAMP loading. The cells were then washed and resuspended in cRPMI at a final concentration of 4×10^5 cells/mL, and allowed to equilibrate for 2 hours in a 37° C., 5% CO2/95% air incubator.
The remainder of the cells was incubated (37° C., 5% CO2/95% air) in the presence of dimethyl sulfoxide (DMSO) vehicle or compounds overnight. Flow cytometry was used to measure samples, and unstained U937 cells were used to create a gate to mark viable cells. Control and experimental samples were excited with a 488 nm laser and analyzed for FL-1 median fluorescence intensity (MFI) within that gate.
For the high throughput screening assay (HTS), U937 cells were loaded with F-cAMP as described above. Solutions were added to 384-well plates (Greiner 784201) with a Biomek FX Multichannel system (Beckman-Coulter) and/or MicroFlo as follows: 1) 5 μL cRPMI; 2) 100 nL compounds from the Prestwick Chemical Library or Spectrum 2000 Library in DMSO were delivered by pintool (V&P Scientific, San Diego, Calif.), final DMSO concentration=1%; 3) 5 μL F-cAMP cells. Negative control wells contained stained cells with 1% DMSO only. For positive controls, F-cAMP cells were treated with 200 μM MK-571. The final concentration for all conditions was 2000 cells/well. The plates were sealed with foil, and incubated (37° C., 5% CO2/95% air) inverted overnight.
After incubation, the 384-well sample plates were analyzed by CyAn flow cytometers (Beckman-Coulter) configured with HyperCyt high throughput auto-sampler systems (IntelliCyt Albuquerque, N. Mex.). The samples were interrogated with 488 nm lasers to assess FL-1 MCI levels.
Data from the HTS were analyzed with HyperView software (IntelliCyt, Albuquerque, N. Mex.) and gated on untreated, live cell populations and then time-gated to separate data per well. FL-1 MCI values for the samples were analyzed per plate. Those samples which reported MCI values≥2 standard deviations above the plate mean negative control values were considered “hit” compounds.
To validate the identified samples and decrease the number of potential false-positive compounds, the hit compounds were assayed in a high-throughput dose response assay. This assay set up 384-well plates with the same volumes of F-cAMP cells, cRPMI, and DMSO/compounds as in the HTS, with the plate formats containing 10-well dose responses for each hit compound, at final concentrations ranging 30 μM to 4 nM. These plates were also foil-sealed, and incubated inverted overnight. Post-incubation, the dose response plates were analyzed by high throughput flow cytometry, as above. […]

[4] = system: healthy human peripheral blood mononuclear cells (PBMCs); assay: Cell TiterGlo luminescent cell viability assay in PBMCs
[5] = system: RS4; 11 cells; assay: Cross-cell line test for cAMP efflux (F-cAMP); type: cell-based, human; conditions: 11, 37° C., 100 μM MK-571, overnight
Protocol: (§1) To study the differences in cAMP-removal, cells were loaded with a fluorescent cAMP-analog, and incubated under different conditions: low temperature (4° C.) used to estimate the passive probe “leakage”, and physiological temperature (37° C.) used to assess active removal of the probe.
(§2) Briefly, 15 million cells were loaded with F-cAMP via the osmotic process detailed above. Small volumes of cells were analyzed by flow cytometry post-staining to determine baseline fluorescence values based on MFI. […] The remaining cells were split in half, and one group was treated with a final concentration of 100 μM MK-571, while the other received DMSO-only at an equal volume. These two groups of cells were incubated ˜24 hr according to standard tissue culture conditions (37° C., 5% CO2/95% air). After incubation, cells were analyzed with flow cytometry for FL-1 MFI.
(§3) Because cells loaded with F-cAMP were washed, the resulting concentration gradient could have caused a “passive leak” of the probe. All 6 cell lines appeared to efflux F-cAMP, although to different extents (FIG. 7A a). After incubation at 4° C., the cells lost 20-60% of their fluorescence from the initial F-cAMP loading.

[6] = system: Nalm 6 cells; assay: Cross-cell line test for cAMP efflux (F-cAMP); type: cell-based, human; conditions: Nalm 6, 37° C., 100 μM MK-571, overnight
Protocol: as §1, §2, §3

[7] = system: 697 cells; assay: Cross-cell line test for cAMP efflux (F-cAMP); type: cell-based, human; conditions: 697, 37° C., 100 μM MK-571, overnight
Protocol: as §1, §2, §3

[8] = system: Reh cells; assay: Cross-cell line test for cAMP efflux (F-cAMP); type: cell-based, human; conditions: 37° C., 100 μM MK-571, overnight
Protocol: as §1, §2, §3

[9] = system: Sup B15 cells; assay: Cross-cell line test for cAMP efflux (F-cAMP); type: cell-based, human; conditions: Sup B15, 37° C., 100 μM MK-571, overnight
Protocol: as §1, §2, §3

[10] = system: MHH Call 3 cells; assay: Cross-cell line test for cAMP efflux (F-cAMP); type: cell-based, human; conditions: MHH Call 3, 37° C., 100 μM MK-571, overnight
Protocol: as §1, §2, §3

[11] = system: U937 cells; assay: Propidium iodide cell cycle assay; conditions: 24 hour incubation, dose response
[12] = U-937, read-out: Calculated EC50 values from Annexin V, 7-AAD double positive events
[13] = U-937, U937 cells, overnight incubation, dose responses 300 nM to 30 μM, read-out: Calculated EC50 values from Annexin V, 7-AAD double positive events

## O=C1C=C2C(=CCOC2O)O1 (stereo not drawn) [Patulin, patulin]
[1]; [12]
  EC50: 3.29 µM
[2]
  Effect on cell division (CFSE fluorescence): arrest of cell division within 48 hr

## O=C(O)Cc1ccccc1Nc1c(Cl)cccc1Cl [diclofenac]
[3]
  Hit status in preliminary screen for cAMP efflux inhibitors: did not come out as hits

## CC1=NCCc2c1[nH]c1cc(O)ccc21 [Harmalol, harmalol]
[1]; [13]
  EC50: 283 µM

## CO[C@H]1O[C@@H]2O[C@@]3(C)CC[C@H]4[C@H](C)CC[C@@H]([C@H]1C)[C@@]24OO3 [Artemether, artemether]
[1]; [13]
  EC50: 106 µM

## C[C@H]1COC2=C1C(=O)C(=O)c1c2ccc2c1CCCC2(C)C [Cryptotanshinone, cryptotanshinone]
[1]; [12]
  EC50: 53.5 µM
[4]; Homo sapiens, PBMC, read-out: EC50 for decreased PBMC viability
  EC50: ~12 µM

## CC1=C(CC(=O)O)c2cc(F)ccc2/C1=C\c1ccc([S+](C)[O-])cc1 (stereo not drawn) [sulindac]
[3]
  Hit status in preliminary screen for cAMP efflux inhibitors: did not come out as hits

## Oc1c(I)cc(Cl)c2cccnc12 [Clioquinol, clioquinol]
[1]; [13]
  EC50: 76.6 µM

## C[C@@H]1CC[C@H]2[C@@H](C)C(=O)O[C@@H]3O[C@@]4(C)CC[C@@H]1[C@]32OO4 [Artemisinin, artemisinin]
[1]; [13]
  EC50: 249 µM

## CN(C)C(=O)CCSC(SCCC(=O)O)c1cccc(/C=C/c2ccc3ccc(Cl)cc3n2)c1 (stereo not drawn) [MK-571]
[3]; Homo sapiens, U-937, read-out: EC50 for inhibition of cAMP efflux calculated in assay development, U937 cells loaded with F-cAMP, overnight
  EC50: 31 µM
[3]; U937 cells loaded with F-cAMP, overnight
  Effect on cAMP efflux: down-modulated cAMP efflux in a dose-dependent manner
[5]
  F-cAMP probe removed in the presence of MK-571: 30-40%
[6]
  F-cAMP probe removed in the presence of MK-571: 60-70%
[7]
  F-cAMP probe removed in the presence of MK-571: 60-70%
[8]
  F-cAMP probe removed in the presence of MK-571: 30-40%
[9]
  F-cAMP efflux in the presence of MK-571: blocked completely
[10]
  F-cAMP efflux in the presence of MK-571: blocked completely

## C[C@H]1[C@H](OC(=O)CCC(=O)O)O[C@@H]2O[C@@]3(C)CC[C@H]4[C@H](C)CC[C@@H]1[C@@]24OO3 [Artesunate, artesunate]
[1]; [13]
  EC50: 99.1 µM
[11]
  Effect on cell cycle (PI staining): increased percentages of cells in G1 or apoptosis in a dose-dependent manner

## O=C1c2ccc(O)c(O)c2C(=O)c2c(O)ccc(O)c21 [Quinalizarin, quinalizarin]
[1]; [13]
  EC50: 172 µM

## [O-][n+]1ccccc1[S-].[O-][n+]1ccccc1[S-].[Zn+2] [Pyrithione zinc, pyrithione zinc]
[4]; viability EC50, leukemic cell lines vs PBMCs
  Selectivity: concentrations required by leukemic cells versus PBMCs (calculated EC50 values): exception

## C[C@H]1[C@@H](O)O[C@@H]2O[C@@]3(C)CC[C@H]4[C@H](C)CC[C@@H]1[C@@]24OO3 [Dihydroartemisinin, dihydroartemisinin]
[1]; [13]
  EC50: 55.7 µM

## CC[C@@]1(O)C(=O)OCc2c1cc1n(c2=O)Cc2cc3c(CN(C)C)c(O)ccc3nc2-1 [topotecan]
[3]
  Hit status in preliminary screen for cAMP efflux inhibitors: did not come out as hits
